Laboratory results from patent US20090069324A1, “CHEMICAL INHIBITORS OF BFL-1 AND RELATED METHODS” (The Burnham Institute, priority 2007, published 2009).
Several values for one entry are separate records, joined by “and”; a condition that tells them apart may be missing. Equal entries are not always repeated. Entries after “also recorded” stand apart in the source; their conditions may differ.

What was measured:
Bfl-1 [1] = molecular target: T1, Bfl-1 (Homo sapiens, UniProt Q16548); assay: Bfl-1 fluorescence polarization assay (FPA/FP), competition with FITC-Bid BH3 peptide; format: binding
T1 construct: lacking their C-terminal transmembrane domains (approximately last 20 amino-acids); made in house; host or cells: XL-1 Blue cells (E. coli), pGEX 4T-1
T1 sequence (Q16548 1-155 limits assumed): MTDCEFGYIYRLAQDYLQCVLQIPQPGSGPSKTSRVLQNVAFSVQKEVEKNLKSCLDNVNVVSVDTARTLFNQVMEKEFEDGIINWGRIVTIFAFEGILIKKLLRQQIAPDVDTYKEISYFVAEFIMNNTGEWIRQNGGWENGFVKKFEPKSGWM
Method: Fluorescence polarization assays (FPA). To determine the binding affinity of anti-apoptotic Bcl-2 polypeptides to FITC-conjugated Bid BH3 peptide, fluorescence polarization assays (FPAs) were performed according to published procedures (Zhai et al., Biochem. J. 376:229-236 (2003)). […] Fluorescence polarization was measured after 10 min using an Analyst™ AD Assay Detection System (LJL Biosystem, Sunnyvale, Calif.) in phosphate-buffered saline (PBS) (pH 7.4). The IC50 determinations were performed using GraphPad Prism software (GraphPad, Inc., San Diego, Calif.).
Competition assays. Using the same procedure outlined above, 100 nM of GST-Bfl-1 protein were incubated with the compounds at 50 μM concentration for 30 min. Then, 5 nM of FITC-Bid BH3 peptide was added. Fluorescence polarization was measured after 10 min. […]

Bcl-2 = molecular target: T2, Bcl-2 (Homo sapiens, UniProt P10415); assay: Bcl-2/FITC-Bim FPA selectivity assay; format: binding
T2 construct: lacking their C-terminal transmembrane domains (approximately last 20 amino-acids); GST (N); made in house; host or cells: XL-1 Blue cells (E. coli), pGEX 4T-1
T2 sequence (P10415 1-218 limits assumed): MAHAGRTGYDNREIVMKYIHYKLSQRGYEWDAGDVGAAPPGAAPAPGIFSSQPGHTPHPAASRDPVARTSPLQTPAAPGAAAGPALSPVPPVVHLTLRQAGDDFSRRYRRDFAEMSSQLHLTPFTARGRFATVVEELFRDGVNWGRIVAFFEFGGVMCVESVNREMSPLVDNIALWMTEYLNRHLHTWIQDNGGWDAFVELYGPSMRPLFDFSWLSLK
Text: (§1) This example illustrates assays for determining the selectivity of chemical inhibitors for Bfl-1. Bfl-1, as with other Bcl-2 family proteins, participates in a very complex and intricate network of interactions with other representatives of the family. Therefore, two selectivity assays involving family members Bcl-2 and Bcl-B were developed.
(§2) For Bcl-2, a FITC-conjugated peptide corresponding to the BH3 domain of Bim was used. For Bcl-B, a FITC-conjugated peptide corresponding to a fragment of the TR3/Nur77 protein shown to bind this member of the Bcl-2 family was used.
(§3) Probe specificity for target or for cell-based/phenotypic assays data can be determined in orthogonal cell-based assay systems that address the pathway of interest. For example, compounds were tested in Bfl-1/FITC-Bid FPA and TR-FRET assays (FIGS. 7A and 7B, respectively), as well as Bcl-2/FITC-Bim FPA (FIG. 7C) and Bcl-B/FITC-TR3-R8 FPA (FIG. 7D) assays. Data represent concentration in μM x-axis) vs % displacement (y-axis).

Bcl-B = molecular target: T3, Bcl-B (Homo sapiens, UniProt Q9HD36); assay: Bcl-B/FITC-TR3-R8 FPA selectivity assay; format: binding
T3 construct: lacking their C-terminal transmembrane domains (approximately last 20 amino-acids); GST (N); made in house; host or cells: XL-1 Blue cells (E. coli), pGEX 4T-1
T3 sequence (Q9HD36 1-182 limits assumed): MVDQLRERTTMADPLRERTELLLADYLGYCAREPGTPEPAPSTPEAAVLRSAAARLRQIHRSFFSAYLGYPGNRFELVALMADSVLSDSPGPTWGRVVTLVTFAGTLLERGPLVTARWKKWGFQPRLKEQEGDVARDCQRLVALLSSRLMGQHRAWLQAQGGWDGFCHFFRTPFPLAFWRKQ
Text: as §1, §2, §3

Bfl-1 [2] = molecular target: T1, Bfl-1; assay: Bfl-1 TR-FRET assay (FITC-Bid, Tb-anti-GST antibody); format: binding
Method: TR-FRET assay. For confirmation of FPA results, a TR-FRET assay utilizing terbium- (Tb-) labeled anti-GST antibody (Th-Ab) was developed. […] The reaction mixture was preincubated for 1 h, and TR-fluorescence (TRF) was measured on an M5 plate reader (Molecular Devices) using excitation at 340 nm and emission at […]. The measurements were averaged from 5 readings during 1 ms after an initial delay 0.1 ms. TR-FRET signal was calculated as the ratio of TR-Fluorescence at 520 nm to TR-Fluorescence at […].
For Bfl-1 TR-FRET assays, Bfl-1 protein and FITC-Bid peptide (FITC-Ahx-[…]) (SEQ ID NO: 1) were utilized. Terbium-anti-GST antibody (Tb-anti-GST Ab) was obtained from Invitrogen (San Diego Calif.). The assay buffer contained 25 mM Bis-Tris, pH 7.0, 1 mM TCEP, and 0.005% Tween 20. The Tb-Ab buffer contained 2.5 nM Tb-anti-GST antibody in assay buffer. The Bfl-1/Th-Ab working solution contained 5 nM Bfl-1 in Th-Ab assay buffer. The solution was prepared fresh and kept on ice prior to use. The FITC-Bid working solution contained 5.6 nM FITC-Bid in assay buffer.
For the Bfl-1 TR-FRET dose-response screening protocol, dose-response curves contained 10 concentrations of compounds obtained using 2-fold serial dilution. Compounds were serially diluted in 100% DMSO, and then diluted with water to 10% final DMSO concentration. A 4 μl aliquot of compounds in 10% DMSO was transferred into columns 3-22 of Greiner 384-well white small-volume plates. Columns 1-2 and 23-24 contained 4 μL of 10% DMSO.
Columns 1-2 were reserved for positive controls, and 8 μL of Th-Ab buffer was added using a WellMate bulk dispenser (Matrix). An aliquot of 8 μL of Bfl-1/Th-Ab working solution was added to columns 3-24 of Greiner 384 well white plates using a WellMate bulk dispenser (Matrix). Columns 23-24 represented negative control wells. Plates were incubated for 1 h at 4° C. An 8 μL aliquot of freshly prepared FITC-Bid working solution was added to the whole plate using WellMate bulk dispenser (Matrix). Plates were incubated for 4 h at room temperature protected from direct light. Fluorescence was measured on the M5 plate reader (excitation: 340 nm, emission: 490 and 520 nm, cutoff: 475 and 515 nm, respectively) in Time Resolved (TR) mode with signal integrated for 1 ms after initial delay of 0.1 ms. TR-FRET signal was calculated as the ratio of TR-Fluorescence at 520 nm to TR-Fluorescence at 490 nm. Data analysis was performed using a sigmoidal dose-response equation through non-linear regression.

[3] = test system: RS11846 B-lymphoma cell line; assay: Induction of apoptosis, Annexin-FITC/PI flow cytometry; format: cell-based, human; conditions: 16 hours incubation
Text: To test compounds for their ability to induce apoptosis in cancer cells, the RS11846 B-lymphoma cell line was used. The RS11846 cell line was established from a patient with an aggressive form of diffuse large cell lymphoma, representing a subset of B-lymphoma in humans. This type of human B-lymphoma is characterized by infiltration beyond lymphoid compartment (bone marrow, spleen, lymph nodes, liver and etc.), typically infiltrate into ovary (in female), testis (in male), spinal cord and CNS (central nervous system) therefore given nomenclature of “diffuse.” Histo-pathologically, the RS11846 cell line is diffuse large cell B-lymphoma, thus representing an immature, aggressive form of the disease. […] Therefore, this cell line is suitable for examining biological effects of Bfl-1 antagonists concerned in this patent application.
For the assay to test compounds for their ability to induce apoptosis, the RS11846 B-lymphoma cell line was cultured in RPMI-1640 supplemented by 10% FBS and Penicillin/Streptomycin. The cells were seeded at cell density of half a million cells per ml, and incubation time was 16 hours. In the assay, cell viability was analyzed by the Annexin-FITC/PI method, using flow cytometry, or FACS analysis. Viable cells were defined by Annexin-FITC-negative, PI-negative. Compensation was done using conventional methods and using the Flo-jo program.
IC50 (50% killing) was determined using an extrapolation method based on the finding that biological response is almost linear near at 50% inhibition point when plotted against semi-log scale on X-axis. See, D. J. Finney, Statistical Method in Biological Assay, Griffin, London, 1978. Briefly, % viability was plotted on Y-axis on an ordinary scale, while drug concentration was plotted on X-axis on a semi-log scale. The actual 50% inhibition point is on the line between left-bracket (higher than 50% inhibition) and right bracket (lower than 50% inhibition), and it can be extrapolated on the line on a semi-log scale. Thus, IC50 was extrapolated via left bracketing and right bracketing, and extrapolated on a semi-log scale, and then, re-converted back to an ordinary scale.

[4] = test system: anti-apoptotic members of the Bcl-2-family; assay: FPA competition assay, GST-Bcl-2 fusion proteins with FITC-Bid BH3 peptide in PBS; format: binding, human; conditions: 100 nM GST-fusion proteins, 5 nM FITC-Bid BH3 peptide
Method: Bcl-2-binding compounds were tested by competition assay analysis. The green tea compound […] (EGCG) has been reported to bind Bcl-2 and Bcl-XL (Leone et al., Cancer Res 63:8118-8121 (2003)). The ability of EGCG to compete with fluorochrome-labeled BH3 peptides was confirmed by FPA. 100 nM of GST-Bcl-2 fusion proteins were incubated with various concentrations of EGCG or control compound ECG (“C”) for 2 min in PBS buffer in 50 uL. Next, 5 nM FITC-conjugated-Bid BH3 peptide was added, bringing final volume to 100 uL and final DMSO concentration to 1%. Fluorescence polarization was measured after 20 min. […] This compound therefore can serve as a positive control when performing high throughput screens of a chemical library.

Solubility = assay: Solubility
Method: Compounds were screened for inhibitory activity of Bfl-1 essentially as described in Example 1, and including a 1 h incubation of Bfl-1 in the presence of compounds and a 4 h incubation after the subsequent addition of the fluorescent probe. […] The assay was screened against the entire NIH small molecule library, which at the time consisted of 65,000 compounds. […] Controls included an “artifact” plate on which a GAPDH assay was performed to check selectivity, and a solubility plate on which a solubility assay was performed to test solubility.

[5] = Tables 3-5, read-out: Bfl-1 TR FRET IC50
[6] = Tables 3-5, read-out: Bfl-1 FP IC50

## CC(C)C(C(=O)O)N1C(=O)/C(=C/c2ccc(Br)cc2)SC1=S (stereo not shown) [BH3I-1, (Z)-2-(5-(4-Bromobenzylidene)-4-oxo-2-thioxothiazolidin-3-yl)-3-methylbutanoic acid, reference compound]
Bfl-1 [1]; conditions not stated, not the assay with 0.005% Tween 20, read-out: Bfl-1 (FP): IC50
  IC50: 4650 nM
Bfl-1 [1]; in the presence of 0.005% Tween 20, read-out: IC50 in Bfl-1 FP assay
  IC50: > 20000 nM
Bcl-2; read-out: Bcl-2 (FP): IC50
  IC50: 1140 nM
Bcl-B; read-out: Bcl-B (FP): IC50
  IC50: 1080 nM

## CN1CCN(C2=C(Cl)C(=O)N(c3ccc(Cl)c(Cl)c3)C2=O)CC1 [CID-1180676, 3-chloro-1-(3,4-dichlorophenyl)-4-(4-methylpiperazin-1-yl)pyrrole-2,5-dione]
Bfl-1 [2]; Bfl-1/FITC-Bid
  Bfl-1 TR-FRET assay, activity in words: submicromolar potency; also recorded: potently disrupt
Bfl-1 [2]; [5]
  IC50: 0.56 µM
Bfl-1 [2]; Tables 7-8, Avg where the cell lists several determinations, read-out: Bfl-1 TR-FRET IC50
  IC50: 0.479 µM
Bfl-1 [2]; Tables 7-8, single values listed before the Avg
  Bfl-1 TR-FRET IC50 (uM), individual determinations: nofit
Bfl-1 [2]; Tables 7-8, single values listed before the Avg, read-out: Bfl-1 TR-FRET IC50 (uM), individual determinations
  IC50: 0.304 µM and 0.443 µM and 0.317 µM and 0.471 µM and 0.445 µM and 1.09 µM and 0.475 µM and 0.584 µM and 0.186 µM
Bfl-1 [1]; Bfl-1/FITC-Bid
  Bfl-1 FP assay, activity in words: submicromolar potency; also recorded: potently disrupt
Bfl-1 [1]; [6]
  IC50: 750 nM
Bfl-1 [1]; Tables 7-8, Avg where the cell lists several determinations, read-out: Bfl-1 FPA IC50
  IC50: 617 nM
Bcl-2; Bcl-2/FITC-Bim complex
  Competition for binding of a BH3 peptide to Bcl-2, in words: limited activity
Bcl-B
  Effect on complex of Bcl-B/FITC-TR3-R8, in words: did not affect

## CCOC(=O)CS(=O)(=O)c1nc(-c2ccccc2)cc(C(F)(F)F)n1 [Compound 3]
[3]
  induction of apoptosis: induction of apoptosis

## CCOC(=O)CS(=O)(=O)c1nc(-c2ccc(F)cc2)cc(C(F)(F)F)n1 [Compound 9]
[3]
  induction of apoptosis: induction of apoptosis

## COc1ccc(-c2cc(N)n(S(=O)(=O)c3c(F)c(F)c(F)c(F)c3F)n2)cc1OC [Compound 10]
[3]
  induction of apoptosis: induction of apoptosis

## COc1ccc(-c2cc(C(F)(F)F)nc(S(C)(=O)=O)n2)cc1OC [Compound 11]
[3]
  induction of apoptosis: induction of apoptosis

## O=C(O[C@@H]1Cc2c(O)cc(O)cc2O[C@@H]1c1cc(O)c(O)c(O)c1)c1cc(O)c(O)c(O)c1 [ECGC, epigallecatechin]
[4]
  binding to anti-apoptotic Bcl-2-family members: binds to all six anti-apoptotic members of the Bcl-2-family

## O=C1C(Cl)=C(N2CCN(CCOCCO)CC2)C(=O)N1c1ccc(Cl)c(Cl)c1 [MLS-0090861]
Bfl-1 [2]; [5]
  IC50: 0.42 µM
Bfl-1 [1]; text b268, assay not stated (equals FP value of Table 5), read-out: IC50
  IC50: 470 nM
Solubility
  aqueous solubility compared with CID-1180676: enhanced aqueous solubility

## O=C1C(Cl)=C(N2CCN(c3ncccn3)CC2)C(=O)N1c1ccc(Cl)c(Cl)c1 [MLS-0090868]
Bfl-1 [2]; [5]
  IC50: 2.46 µM
Bfl-1 [1]; [6]
  IC50: 1900 nM

## O=C1C(Cl)=C(N2CCN(CCO)CC2)C(=O)N1c1ccc(Cl)c(Cl)c1 [MLS-0090874]
Bfl-1 [2]; [5]
  IC50: 0.59 µM
Bfl-1 [1]; [6]
  IC50: 560 nM

## CC1C(=O)NCCN1C1=C(Cl)C(=O)N(c2ccc(Cl)c(Cl)c2)C1=O (stereo not shown) [MLS-0090884]
Bfl-1 [2]; [5]
  IC50: 2.03 µM
Bfl-1 [1]; [6]
  IC50: 5630 nM
